Measured values as given in patent publication US6465457B1 (priority 1991, dated 2002).

Assays:
Format in all cases: in vivo
[1] = test system: Erysiphe graminis tritici (Wheat); test: Foliar fungal disease test on plants: Erysiphe graminis tritici (Wheat); settings: 100 ppm a.i. foliar spray or root drench (approx. 40 ppm in dry soil); plants inoculated 24 hours before treatment
Method: (§1) The compounds were tested against a variety of foliar fungal diseases of plants. The technique employed was as follows.
(§2) The plants were grown in John Innes Potting Compost (No 1 or 2) in 4 cm diameter minipots. The test compounds were formulated either by bead milling with aqueous DISPERSOL T or as a solution in acetone or acetone/ethanol which was diluted to the required concentration immediately before use. […] The sprays were applied to maximum retention and the root drenches to a final concentration equivalent to approximately 40 ppm a.i. in dry soil. TWEEN 20 was added to give a final concentration of 0.05% when the sprays were applied to cereals.
(§3) For most of the tests the compounds were applied to the soil (roots) or to the foliage (by spraying) one or two days before the plant was inoculated with the disease. An exception was the test on Erysiphe graminis in which the plants were inoculated 24 hours before treatment. Foliar pathogens were applied by spray as zoosporangial suspensions onto the leaves of test plants. After inoculation, the plants were put into an appropriate environment to allow infection to proceed and then incubated until the disease was ready for assessment. The period between inoculation and assessment varied from four to fourteen days according to the disease and environment.
(§4) The disease level present (i.e. leaf area covered by actively sporulating disease) on each of the treated plants was recorded using the following assessment scale:
(§5) Each assessment was then expressed as a percentage of the level of disease present on the untreated control plants. This calculated value is referred to as a POCO (Percentage of Control) value. An example of a typical calculation is as follows:
(§6) Disease level on untreated control=90
(§7) Disese level on treated plant=30 [formula]
(§8) This calculated POCO value is then rounded to the nearest of the values in the 9-point assessment scale shown above. In this particular example, the POCO value would be rounded to 30. If the calculated POCO falls exactly mid-way between two of the points, it is rounded to the lower of the two values.

Septoria nodorum (Wheat) = test: Foliar fungal disease test on plants: Septoria nodorum (Wheat); settings: 100 ppm a.i. foliar spray or root drench (approx. 40 ppm in dry soil), one or two days before inoculation
Method: as §1, §2, §3, §4, §5, §6, §7, §8

[2] = test system: Puccinia recondita (Wheat); test: Foliar fungal disease test on plants: Puccinia recondita (Wheat)
Method: as §1
The plants were grown in John Innes Potting Compost (No 1 or 2) in 4 cm diameter minipots. The test compounds were formulated either by bead milling with aqueous DISPERSOL T or as a solution in acetone or acetone/ethanol which was diluted to the required concentration immediately before use. The formulations (100 ppm active ingredient) were sprayed on to the foliage or applied to the roots of the plants in the soil. The sprays were applied to maximum retention and the root drenches to a final concentration equivalent to approximately 40 ppm a.i. in dry soil. TWEEN 20 was added to give a final concentration of 0.05% when the sprays were applied to cereals.
as §3, with “For most of the tests the compounds were applied to the soil (roots) or to the foliage (by spraying) one or two days before the plant was inoculated with the disease.” left out
as §4, §5, §6, §7, §8

[3] = test system: Plasmopara viticola (Vines); test: Foliar fungal disease test on plants: Plasmopara viticola (Vines); settings: 100 ppm a.i. foliar spray or root drench (approx. 40 ppm in dry soil), one or two days before inoculation
Method: as §1, §2, §3, §4, §5, §6, §7, §8

[4] = test system: Phytophthora infestans (Tomatoes); settings: 100 ppm a.i. foliar spray or root drench (approx. 40 ppm in dry soil), one or two days before inoculation
[5] = test system: Pyricularia oryzae (Rice); settings: 100 ppm a.i. foliar spray or root drench (approx. 40 ppm in dry soil), one or two days before inoculation
[6] = test system: Venturia inaequalis (Apples); test: Foliar fungal disease test on plants: Venturia inaequalis (Apples); settings: 100 ppm a.i. foliar spray or root drench (approx. 40 ppm in dry soil), one or two days before inoculation
Method: as §1, §2, §3, §4, §5, §6, §7, §8

[7] = test system: Thanatephorus cucumeries (Rice); test: Foliar fungal disease test on plants: Thanatephorus cucumeries (Rice); settings: 100 ppm a.i. foliar spray or root drench (approx. 40 ppm in dry soil), one or two days before inoculation
Method: as §1, §2, §3, §4, §5, §6, §7, §8

[8] = 100 ppm a.i. foliar spray or root drench (approx. 40 ppm in dry soil), one or two days before inoculation
[9] = 100 ppm a.i. foliar spray or root drench, plants inoculated with Puccinia recondita 48 hours before treatment

| SMILES | POCO (Percentage of Control) disease level, Erysiphe graminis tritici (Wheat) [1] | POCO (Percentage of Control) disease level, Septoria nodorum (Wheat) (Septoria nodorum (Wheat)) | POCO (Percentage of Control) disease level, Puccinia recondita (Wheat) [2, 8] | POCO (Percentage of Control) disease level, Plasmopara viticola (Vines) [3] | POCO (Percentage of Control) disease level, Phytophthora infestans (Tomatoes) [4] | POCO (Percentage of Control) disease level, Pyricularia oryzae (Rice) [5] | POCO (Percentage of Control) disease level, Venturia inaequalis (Apples) [6] | POCO (Percentage of Control) disease level, Thanatephorus cucumeries (Rice) [7] | POCO (Percentage of Control) disease level, Puccinia recondita (Wheat) [2, 9] |
| --- | --- | --- | --- | --- | --- | --- | --- | --- | --- |
| COC=C(C(=O)OC)c1ccccc1COC(=O)Nc1cccc([N+](=O)[O-])c1 [6 (1)] | 90 (90 and 94 = 60.1-100% disease present) | 30 (30 = 20.1-30% disease present) | 90 (90 and 94 = 60.1-100% disease present) | 90 (90 and 94 = 60.1-100% disease present) | 60 (60 = 30.1-60% disease present) | 90 (90 and 94 = 60.1-100% disease present) | 60 (60 = 30.1-60% disease present) | 90 (90 and 94 = 60.1-100% disease present) |  |
| CO/C=C(/C(=O)OC)c1ccccc1COC(=O)Nc1cccc(C(F)(F)F)c1 [2 (1), (E)-methyl 3-methoxy-2-[2-((3-trifluoromethylphenyl)carbamoyloxymethyl)phenyl]-propenoate] | 60 (60 = 30.1-60% disease present) | 20 (20 and 24 = 10.1-20% disease present) | 10 (10 = 5.1-10% disease present) | 10 (10 = 5.1-10% disease present) | 10 (10 = 5.1-10% disease present) | 5 (5 = 3.1-5% disease present) | 0 (0 = 0% disease present) | 60 (60 = 30.1-60% disease present) |  |
| COC=C(C(=O)OC)c1ccccc1COC(=O)Nc1ccc(F)c([N+](=O)[O-])c1 [105 (1)] | 30 (30 = 20.1-30% disease present) | 90 (90 and 94 = 60.1-100% disease present) |  | 90 (90 and 94 = 60.1-100% disease present) | 90 (90 and 94 = 60.1-100% disease present) | 60 (60 = 30.1-60% disease present) | 20 (20 and 24 = 10.1-20% disease present) | 60 (60 = 30.1-60% disease present) | 90+ (90 and 94 = 60.1-100% disease present) |
| COC=C(C(=O)OC)c1ccccc1COC(=O)Nc1ccccc1C(F)(F)F [18 (1)] | 90 (90 and 94 = 60.1-100% disease present) | 90 (90 and 94 = 60.1-100% disease present) |  | 0 (0 = 0% disease present) | 90 (90 and 94 = 60.1-100% disease present) | 60 (60 = 30.1-60% disease present) | 3 (3 = 1.1-3% disease present) | 90 (90 and 94 = 60.1-100% disease present) | 90+ (90 and 94 = 60.1-100% disease present) |
| COC=C(C(=O)OC)c1ccccc1COC(=O)NCc1ccccc1 [4 (1)] | 90 (90 and 94 = 60.1-100% disease present) | 30 (30 = 20.1-30% disease present) | 30 (30 = 20.1-30% disease present) | 20 (20 and 24 = 10.1-20% disease present) | 60 (60 = 30.1-60% disease present) | 90 (90 and 94 = 60.1-100% disease present) | 60 (60 = 30.1-60% disease present) | 90 (90 and 94 = 60.1-100% disease present) |  |
